{
  "source": "PubChem BioAssay AID1996",
  "data": [
    {"settings": "buffer; pH 7.4; 200.0 µM", "units": {"solubility kinetic": "µg/mL"}, "values": [
      {"molecule": "COc1cc(OC)cc(C(=O)NCc2ccc3c(c2)OCO3)c1", "solubility kinetic": 46.1},
      {"molecule": "CCNC(=S)Nc1ccc(Cc2ccncc2)cc1", "solubility kinetic": 38.3},
      {"molecule": "FC(F)(F)c1ccccc1NC(=S)N1CCCCCC1", "solubility kinetic": "> 45.4"},
      {"molecule": "CCC1(CC)Cc2ccccc2-c2nc(NCCCO)[nH]c(=O)c21", "solubility kinetic": 42},
      {"molecule": "O=CNCCc1nc2ccccc2n1CCc1ccccc1", "solubility kinetic": 41},
      {"molecule": "O=C(Nc1ccccc1C(=O)Nc1ccccc1)c1cccs1", "solubility kinetic": 1},
      {"molecule": "NNC(=O)c1ccc(N2CCCCCC2)c([N+](=O)[O-])c1", "solubility kinetic": "> 41.7"},
      {"molecule": "CC(=O)N(C1=NCCCS1)c1ccc(Cl)cc1", "solubility kinetic": 32.8},
      {"molecule": "CCOc1cccc(/C=N/NC(=O)c2cccnc2)c1O", "solubility kinetic": "> 42.8"},
      {"molecule": "CC(=O)c1cn(CC(=O)Nc2ccccc2F)c2ccccc12", "solubility kinetic": 9.4},
      {"molecule": "[O-]/[N+](=C\\c1ccco1)c1ccc(Cl)cc1", "solubility kinetic": 32.5},
      {"molecule": "Cc1cccc(C)c1N1C(=O)CC(N2CCN(S(=O)(=O)c3ccccc3F)CC2)C1=O", "note": "(configuration not stated)", "solubility kinetic": 50.7},
      {"molecule": "O=C(CSc1nccc(=O)[nH]1)NC1CCCC1", "solubility kinetic": 36},
      {"molecule": "CC(C)c1ccccc1NC(=S)NC(=O)C1CCCCC1", "solubility kinetic": 0.9},
      {"molecule": "OC(COc1ccc(Br)cc1)Cn1ccnc1", "note": "(configuration not stated)", "solubility kinetic": 36.3},
      {"molecule": "COc1ccc(NS(=O)(=O)c2cn(C)cn2)cc1", "solubility kinetic": "> 40.1"},
      {"molecule": "CC1=C(C)C(O)N(Cc2ccccc2)C1=O", "note": "(configuration not stated)", "solubility kinetic": "> 32.6"},
      {"molecule": "O=C(/C=C/c1ccc(Cl)c(Cl)c1)Nc1cccnc1", "solubility kinetic": 0.6},
      {"molecule": "O=C(N/N=C/c1ccc2c(c1)OCO2)C1CC1", "solubility kinetic": "> 34.8"},
      {"molecule": "CCOC(=O)C(=CNc1ccc(C#N)cc1)C(=O)OCC", "solubility kinetic": "> 43.2"},
      {"molecule": "Cc1cc(C(=O)OCC(=O)N(C)c2ccccc2)c2ccccc2n1", "solubility kinetic": "> 50.2"},
      {"molecule": "COc1ccc(C(=O)C2CCCN(C(=O)C3=CCCC3)C2)cc1OC", "note": "(configuration not stated)", "solubility kinetic": "> 51.5"},
      {"molecule": "Cc1sc2ncnc(SCC(=O)NC3CCCC3)c2c1C", "solubility kinetic": 5.2},
      {"molecule": "O=S(=O)(Nc1nc2ccccc2nc1NCC1CCCO1)c1ccccc1", "note": "(configuration not stated)", "solubility kinetic": "> 57.7"},
      {"molecule": "O=C(Nn1cnc2ccccc2c1=O)c1c(F)cccc1F", "solubility kinetic": "> 45.2"},
      {"molecule": "COc1ccc(CC(=O)OCN2C(=O)c3ccccc3C2=O)cc1OC", "solubility kinetic": "> 53.3"},
      {"molecule": "O=C(Nc1ccc2c(c1)C(=O)OC2)c1ccc(Cl)cc1", "solubility kinetic": "< 0.6"},
      {"molecule": "COc1cc(SC)ccc1C(=O)NCCCn1ccnc1", "solubility kinetic": "> 45.8"},
      {"molecule": "O=C(Cc1ccccc1)Oc1coc(CSc2ncccn2)cc1=O", "solubility kinetic": "> 53.2"},
      {"molecule": "Cc1ccc(C)c(NC(=O)CN(C)C(C)C(=O)N2CCCC2)c1", "note": "(configuration not stated)", "solubility kinetic": 42.1},
      {"molecule": "Cc1cc([N+](=O)[O-])ccc1NC(=O)CCC(=O)N1CCCCC1", "solubility kinetic": "> 47.9"},
      {"molecule": "Cc1noc(C)c1C(=O)N1CCC(C(=O)c2ccc(F)cc2F)CC1", "solubility kinetic": "> 52.3"},
      {"molecule": "COc1ccc(C(=O)C[n+]2ccc3ccccc3c2C)cc1.[Br-]", "solubility kinetic": 16.1},
      {"molecule": "CCOC(=O)C1CCN(CC(O)COCc2ccc(Cl)cc2)CC1.Cl", "note": "(configuration not stated)", "solubility kinetic": 57.5},
      {"molecule": "CSc1ncc(Cl)c(C(=O)NCc2cccnc2)n1", "solubility kinetic": "> 44.2"},
      {"molecule": "CN(C)c1cccc(N(C)C)c1CNC(=O)NC(=O)c1c(F)cccc1F", "solubility kinetic": 0.3},
      {"molecule": "O=C(Nc1nnc2n1CCS2)c1ccc(Br)o1", "solubility kinetic": "> 47.3"},
      {"molecule": "Cl.N#C/C(=C/c1cc(Cl)c(O)c(Cl)c1)C(=O)N1CCCCC1", "solubility kinetic": "> 54.2"},
      {"molecule": "Cc1ccc(OS(=O)(=O)c2ccc(N3C(=O)CCC3=O)cc2)cc1", "solubility kinetic": 18.3},
      {"molecule": "Cc1cccc(NC(=S)N2CCN(S(C)(=O)=O)CC2)c1", "solubility kinetic": "> 47"},
      {"molecule": "Cc1ccc(NC(=O)C2CC2c2ccccc2)c([N+](=O)[O-])c1", "note": "(configuration not stated)", "solubility kinetic": 3.5},
      {"molecule": "CS(=O)(=O)N(CC(=O)Nc1ccc(Br)cc1F)C1CCCCC1", "solubility kinetic": "> 61.1"},
      {"molecule": "CCc1ccccc1NC(=O)c1cc(-c2ccco2)on1", "solubility kinetic": 3.1},
      {"molecule": "CC(=O)c1ccc(N=C2NC(=O)C(CO)(CO)S2)cc1", "solubility kinetic": 43.2},
      {"molecule": "O=C(COc1ccccc1)NCCc1cnc[nH]1", "solubility kinetic": "> 36.8"},
      {"molecule": "COc1ccccc1OCCN(C#N)c1nc(N(C)C)nc(N(C)C)n1", "solubility kinetic": 6.3},
      {"molecule": "CN(C)C(=O)COc1ccc(Oc2ccccc2)cc1", "solubility kinetic": 25.7},
      {"molecule": "S=C(NCCCN1CCOCC1)N1CCOCC1", "solubility kinetic": "> 41"},
      {"molecule": "O=C(/C=C/c1ccc([N+](=O)[O-])cc1)NCc1ccc2c(c1)OCO2", "solubility kinetic": 0.9},
      {"molecule": "Cc1ccccc1C(=O)NC1CCN(C(=O)Nc2ccc(F)cc2)CC1", "solubility kinetic": 21.5},
      {"molecule": "C=CCNC(=S)N1CCC(Cc2ccccc2)CC1", "solubility kinetic": 31.5},
      {"molecule": "CCCCN(C(=O)C1CCC1)c1c(N)n(CCC)c(=O)[nH]c1=O", "solubility kinetic": "> 48.4"},
      {"molecule": "CCC1(C)NC(C(=O)O)Cc2c1[nH]c1ccccc21", "note": "(configuration not stated)", "solubility kinetic": "> 38.7"},
      {"molecule": "O=C(NCC1CCCO1)c1cnc(Cl)c(Cl)c1", "note": "(configuration not stated)", "solubility kinetic": "> 41.3"},
      {"molecule": "Cc1ccc(Sc2ncccc2O)cc1", "solubility kinetic": 17.4},
      {"molecule": "CN(c1ccc(C(=O)N2CCCCC2)cc1)S(=O)(=O)c1cccs1", "solubility kinetic": 52.7},
      {"molecule": "Cc1cc(NC(=O)Cc2ccccc2[N+](=O)[O-])no1", "solubility kinetic": 16.6},
      {"molecule": "COc1cccc(NC(=O)c2cnc(SC)nc2)c1", "solubility kinetic": 14.3},
      {"molecule": "CC1Oc2ccccc2N(CC(=O)NC2CCCC2)C1=O", "note": "(configuration not stated)", "solubility kinetic": "> 43.3"},
      {"molecule": "Cc1ccc(C(=O)NCCc2ccccc2)cc1N1CCCC1=O", "solubility kinetic": "> 48.4"},
      {"molecule": "Cc1ccc(SCC(=O)Nc2cc(S(=O)(=O)N3CCCCC3)ccc2C)cc1", "solubility kinetic": 9.9},
      {"molecule": "CN(CCCC(=O)N1CCN(c2ncccn2)CC1)S(=O)(=O)c1ccc(F)cc1", "solubility kinetic": "> 63.2"},
      {"molecule": "CCOC(=O)/C(=C/Nc1ccc(F)c(F)c1)[N+](=O)[O-]", "solubility kinetic": "> 40.8"},
      {"molecule": "Cc1ccc(NC(=O)C2CCCN(c3cnccn3)C2)c(C)c1", "note": "(configuration not stated)", "solubility kinetic": "> 46.6"},
      {"molecule": "CN1CCN(c2ccccc2NC(=O)c2cccs2)CC1", "solubility kinetic": "> 45.2"},
      {"molecule": "CC(=O)c1cn(-c2ccc(Cl)cc2)c(=O)[nH]c1=O", "solubility kinetic": 33.7},
      {"molecule": "COc1cccc(NC(=O)COC(=O)c2ccc3ccccc3n2)c1", "solubility kinetic": 43.4},
      {"molecule": "Cc1nc(SCc2c(Cl)cccc2Cl)nc(OC(=O)N(C)C)c1C", "solubility kinetic": 2.2},
      {"molecule": "Cc1nccn1Cc1ccc(Cl)nc1", "solubility kinetic": "> 31.1"},
      {"molecule": "CCOC(=O)C1CCCN(C/C=C/c2ccccc2)C1", "note": "(configuration not stated)", "solubility kinetic": 20.5},
      {"molecule": "Cl.OC(COCc1ccc(Cl)cc1)CN1CCCCC1", "note": "(configuration not stated)", "solubility kinetic": 46.4},
      {"molecule": "CC(=O)NC(CC(=O)N(C)Cc1cccc(Cl)c1Cl)c1ccccc1", "note": "(configuration not stated)", "solubility kinetic": "> 56.9"},
      {"molecule": "Cc1nsc2nc3c(F)c(F)c(F)c(F)c3cc12", "solubility kinetic": 4.4},
      {"molecule": "O=C(Cc1ccccc1)Nc1ccccc1C(=O)N1CCCCC1", "solubility kinetic": "> 48.4"},
      {"molecule": "Cc1cc(C=C2C(=O)N(C)C(=S)N(C)C2=O)c(C)n1-c1cccnc1", "solubility kinetic": 13.9},
      {"molecule": "NS(=O)(=O)c1ccc(NC(=O)c2ccc(S(=O)(=O)N3CCCCC3)cc2)cc1", "solubility kinetic": 2.1},
      {"molecule": "COc1ccccc1CCNC(=O)c1ccc(Br)s1", "solubility kinetic": 29},
      {"molecule": "O=C(CN1C(=O)NC2(CCc3ccccc32)C1=O)Nc1cccc(Cl)c1", "note": "(configuration not stated)", "solubility kinetic": 54.2},
      {"molecule": "Cc1ccc(CNC(=O)C2CSC3(C)CCC(=O)N23)cc1", "note": "(configuration not stated)", "solubility kinetic": "> 45.7"},
      {"molecule": "CC1CCCN(S(=O)(=O)c2ccc3oc(=O)ccc3c2)C1", "note": "(configuration not stated)", "solubility kinetic": 20},
      {"molecule": "Cc1cccc(C)c1OCCN1C(=O)NC(C)(c2ccccc2)C1=O", "note": "(configuration not stated)", "solubility kinetic": 5},
      {"molecule": "CCOC(=O)C1CCCNC1=O", "note": "(configuration not stated)", "solubility kinetic": "> 25.7"},
      {"molecule": "OC1CCN(Cc2ccc3ccccc3c2)CC1", "solubility kinetic": 26.6},
      {"molecule": "Cc1ccc(N2C(=O)Cc3ccccc3C2=O)cc1", "solubility kinetic": "> 37.7"},
      {"molecule": "Br.Fc1ccccc1CNCc1ccc2c(c1)OCO2", "solubility kinetic": "> 51"},
      {"molecule": "O=C(COC(=O)Cc1ccc([N+](=O)[O-])cc1)NC1CCCCCC1", "solubility kinetic": "> 50.2"},
      {"molecule": "NC(=O)C1CCN(C(=O)NC(=O)c2ccccc2)CC1", "solubility kinetic": "> 41.3"}
    ]}
  ]
}
